Laboratory results from the supplement of paper PMC4723716.
Structures can show the parent of a compound that is named as a salt.

Test system: Plasmodium falciparum NF54 gametocytes
Conditions: 384, incubation time: 72 h
Protocol: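 Known antimalarials and MMV control compounds in dose response against each stage (I–V) […] The fitted EC50 is reported as IC50 in µM; '>' marks the top dose reached without a curve.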

[1] = gametocyte stage: Stage I Dose Response IC50 (µM), assay protocol: TSSA
[2] = gametocyte stage: Stage II Dose Response IC50 (µM), assay protocol: TSSA
[3] = gametocyte stage: Stage III Dose Response IC50 (µM), assay protocol: TSSA
[4] = gametocyte stage: Stage IV Dose Response IC50 (µM), assay protocol: TSSA
[5] = gametocyte stage: Stage V Dose Response IC50 (µM), assay protocol: TSSA
[6] = gametocyte stage: Stage I Dose Response IC50 (µM), assay protocol: SaLSSA
[7] = gametocyte stage: Stage II Dose Response IC50 (µM), assay protocol: SaLSSA
[8] = gametocyte stage: Stage III Dose Response IC50 (µM), assay protocol: SaLSSA
[9] = gametocyte stage: Stage IV Dose Response IC50 (µM), assay protocol: SaLSSA
[10] = gametocyte stage: Stage V Dose Response IC50 (µM), assay protocol: SaLSSA

Compound	IC50 of gametocyte viability [1] [µM]	IC50 of gametocyte viability [2] [µM]	IC50 of gametocyte viability [3] [µM]	IC50 of gametocyte viability [4] [µM]	IC50 of gametocyte viability [5] [µM]	IC50 of gametocyte viability [6] [µM]	IC50 of gametocyte viability [7] [µM]	IC50 of gametocyte viability [8] [µM]	IC50 of gametocyte viability [9] [µM]	IC50 of gametocyte viability [10] [µM]
CC(C)(N)CNC(=O)CC1CCC2(CC1)OOC1(O2)C2CC3CC(C2)CC1C3 (stereo not given)	0.00821	0.00599	0.00837	0.00742	> 12.5	–	–	–	–	–
CC(C)(N)CNC(=O)C[C@H]1CC[C@]2(CC1)OOC1(O2)C2CC3CC(C2)CC1C3 (stereo not given in full)	–	–	–	–	–	0.00769	0.00395	0.00158	0.00787	> 12.5
OC(c1cc(C(F)(F)F)nc2c(C(F)(F)F)cccc12)C1CCCCN1 (racemic) [Mefloquine (Racemic)]	0.0569	0.117	0.127	2.08	5.77	–	–	–	–	–
O[C@@H](c1cc(C(F)(F)F)nc2c(C(F)(F)F)cccc12)[C@H]1CCCCN1 (racemic) [Mefloquine (Racemic)]	–	–	–	–	–	0.0441	0.052	0.143	0.818	0.132
CCN(CC)CCCNc1ccnc2cc(Cl)ccc12 [AQ-13]	–	–	–	–	–	0.0426	0.0335	0.484	6.47	6.05
CCN(CC)Cc1cc(Nc2ccnc3cc(Cl)ccc23)ccc1O [Amodiaquine]	0.0134	0.0088	0.107	5.4	> 9.39	0.0118	0.00579	0.0961	2.46	1.78
CO[C@H]1O[C@@H]2O[C@@]3(C)CC[C@H]4[C@H](C)CC[C@@H]([C@H]1C)[C@@]24OO3 [Artemether]	0.0183	0.0125	0.0175	0.0184	> 12.5	0.0159	0.00459	0.00617	0.019	> 12.5
C[C@@H]1CC[C@H]2[C@@H](C)C(=O)O[C@@H]3O[C@@]4(C)CC[C@@H]1[C@]32OO4 [Artemisinin] [listing 1 of 2 here]	–	–	–	–	–	0.0243	0.0204	0.0118	0.0373	> 12.5
C[C@@H]1CC[C@H]2[C@@H](C)C(=O)O[C@@H]3O[C@@]4(C)CC[C@@H]1[C@]32OO4 [Artemisinin] [listing 2 of 2 here]	0.027	0.0188	0.0218	0.0322	> 12.5	–	–	–	–	–
C[C@H]1[C@H](N2CCS(=O)(=O)CC2)O[C@@H]2O[C@@]3(C)CC[C@H]4[C@H](C)CC[C@@H]1[C@@]24OO3 [Artemisone] [listing 1 of 2 here]	–	–	–	–	–	0.00277	0.00176	0.00339	0.00421	> 12.5
C[C@H]1[C@H](N2CCS(=O)(=O)CC2)O[C@@H]2O[C@@]3(C)CC[C@H]4[C@H](C)CC[C@@H]1[C@@]24OO3 [Artemisone] [listing 2 of 2 here]	0.00264	0.00244	0.00605	0.00548	> 7.85	–	–	–	–	–
C[C@H]1[C@@H](O)O[C@@H]2O[C@@]3(C)CC[C@H]4[C@H](C)CC[C@@H]1[C@@]24OO3 [Artenimol (Dihydro artemisinin)] [listing 1 of 2 here]	–	–	–	–	–	0.00579	0.0027	0.00674	0.0207	> 12.5
C[C@H]1[C@@H](O)O[C@@H]2O[C@@]3(C)CC[C@H]4[C@H](C)CC[C@@H]1[C@@]24OO3 [Artenimol (Dihydro artemisinin)] [listing 2 of 2 here]	0.00685	0.00766	0.0152	0.0403	> 12.5	–	–	–	–	–
C[C@H]1[C@H](OC(=O)CCC(=O)O)O[C@@H]2O[C@@]3(C)CC[C@H]4[C@H](C)CC[C@@H]1[C@@]24OO3 [Artesunate] [listing 1 of 2 here]	–	–	–	–	–	0.00773	0.00351	0.0126	0.0491	> 10.6
C[C@H]1[C@H](OC(=O)CCC(=O)O)O[C@@H]2O[C@@]3(C)CC[C@H]4[C@H](C)CC[C@@H]1[C@@]24OO3 [Artesunate] [listing 2 of 2 here]	0.00565	0.00577	0.0172	0.02	> 12.5	–	–	–	–	–
O=C1C(O)=C([C@H]2CC[C@H](c3ccc(Cl)cc3)CC2)C(=O)c2ccccc21 [Atovaquone] [listing 1 of 2 here]	> 12.5	> 12.5	> 12.5	> 12.5	> 12.5	–	–	–	–	–
O=C1C(O)=C([C@H]2CC[C@H](c3ccc(Cl)cc3)CC2)C(=O)c2ccccc21 [Atovaquone] [listing 2 of 2 here]	–	–	–	–	–	> 12.5	> 12.5	> 12.5	2.37	> 12.5
CC[C@H]1OC(=O)[C@H](C)[C@@H](O[C@H]2C[C@@](C)(OC)[C@@H](O)[C@H](C)O2)[C@H](C)[C@@H](O[C@@H]2O[C@H](C)C[C@H](N(C)C)[C@H]2O)[C@](C)(O)C[C@@H](C)CN(C)[C@H](C)[C@@H](O)[C@]1(C)O [Azithromycin]	> 12.5	> 12.5	> 12.5	> 12.5	> 12.5	–	–	–	–	–
CC[C@H]1OC(=O)[C@H](C)[C@H](O[C@H]2C[C@@](C)(OC)[C@@H](O)[C@H](C)O2)[C@H](C)[C@@H](O[C@@H]2O[C@H](C)C[C@H](N(C)C)[C@H]2O)[C@](C)(O)C[C@@H](C)CN(C)[C@H](C)[C@H](O)[C@]1(C)O [Azithromycin]	–	–	–	–	–	> 12.5	> 12.5	> 12.2	> 12.5	> 12.5
CCN(CC)CCCC(C)Nc1ccnc2cc(Cl)ccc12 (stereo not given) [Chloroquine]	0.084	0.0806	> 6.25	> 6.25	> 6.25	0.0956	0.0981	> 6.25	> 6.25	> 6.25
CC(C)NC(=N)NC(=N)Nc1ccc(Cl)c(Cl)c1 [Chlorproguanil hydrochloride/1.11]	> 12.5	> 12.5	8.37	7.57	> 11	9.35	7.79	7.87	5.21	4.8
CC1(C)N=C(N)N=C(N)N1c1ccc(Cl)cc1 [Cycloguanil]	–	–	–	–	–	> 12.5	> 12.5	> 12.5	> 12.5	> 12.5
